Measurements from PubChem BioAssay AID651790 (The Scripps Research Institute Molecular Screening Center, 2012).
Active and inactive are the calls of the source. How the calls were made is not given here.

The molecules below were run on cells with GAA30 frataxin promoter-luciferase, luminescence (assay: GAA30 FXN promoter reporter activators, dose response, counter-screen for GAA850 frataxin promoter activators, cell-based, luminescence, GAA30 repeat (AID 651790)).

Compound	EC50
COc1ccc(-c2nnc(Nc3nc4c(OC)cccc4s3)o2)cc1	> 59.6 µM (inactive)
CSc1ccc2nc(Nc3nnc(-c4ccccc4Cl)o3)sc2c1	27.6 µM (inactive)
Cn1c(SCC(=O)NCC2CCCO2)ncc(C(=O)Nc2ccccc2)c1=O (stereo not drawn)	> 59.6 µM (inactive)
COc1ccccc1NC(=O)c1cnc(SCC(=O)NCC2CCCO2)n(C)c1=O (stereo not drawn)	> 59.6 µM (inactive)
Cc1ccc(NC(=O)c2cnc(SCC(=O)Nc3cccc(C(F)(F)F)c3)n(C)c2=O)cc1C	28.7 µM (inactive)
Fc1ccc(-c2nnc(Nc3nc4c(F)cccc4s3)o2)cc1	0.634 µM
COc1ccccc1NC(=O)c1cnc(SCC(=O)NCc2ccccc2)n(C)c1=O	> 59.6 µM (inactive)
COc1ccc(-c2nnc(Nc3nc4cc(OC)ccc4s3)o2)c(OC)c1	> 59.6 µM (inactive)
Clc1ccc(-c2nnc(Nc3nc4cc5c(cc4s3)OCO5)o2)cc1	> 59.6 µM (inactive)
COc1ccccc1NC(=O)c1cnc(SCC(=O)Nc2nc3ccccc3s2)n(C)c1=O	> 59.6 µM (inactive)
COc1ccccc1NC(=O)c1cnc(SCC(=O)Nc2cc(C)on2)n(C)c1=O	> 59.6 µM (inactive)
COc1ccc(-c2nnc(Nc3nc4c(OC)cccc4s3)o2)c(OC)c1	> 59.6 µM (inactive)
COc1ccc(-c2nnc(Nc3nc4ccc(SC)cc4s3)o2)c(OC)c1	> 59.6 µM (inactive)
COc1cccc2sc(Nc3nnc(-c4ccccc4Cl)o3)nc12	> 59.6 µM (inactive)
COc1ccccc1NC(=O)c1cnc(SCC(=O)Nc2ccc3c(c2)OCO3)n(C)c1=O	> 59.6 µM (inactive)
Fc1cccc2sc(Nc3nnc(-c4ccccc4Cl)o3)nc12	4.95 µM
Fc1ccc2nc(Nc3nnc(-c4ccccc4Cl)o3)sc2c1	> 59.6 µM (inactive)
COc1ccccc1NC(=O)c1cnc(SCC(=O)NCCc2ccccc2)n(C)c1=O	> 59.6 µM (inactive)
COc1ccc(-c2nnc(Nc3nc4ccc(OC)cc4s3)o2)c(OC)c1	> 59.6 µM (inactive)
CCc1nnc(NC(=O)CSc2ncc(C(=O)Nc3ccc(C)c(C)c3)c(=O)n2C)s1	> 59.6 µM (inactive)
CSc1ccc2nc(Nc3nnc(-c4ccc5c(c4)OCCO5)o3)sc2c1	> 59.6 µM (inactive)
COc1ccccc1NC(=O)c1cnc(SCC(=O)NCc2ccc3c(c2)OCO3)n(C)c1=O	> 59.6 µM (inactive)
COc1ccccc1-c1nnc(Nc2nc3c(OC)cccc3s2)o1	> 59.6 µM (inactive)
Cn1c(SCC(=O)NCC2CCCO2)ncc(C(=O)Nc2ccc(F)cc2)c1=O (stereo not drawn)	> 59.6 µM (inactive)
COc1cccc2sc(Nc3nnc(-c4ccccc4)o3)nc12	> 59.6 µM (inactive)
COc1ccccc1CNC(=O)CSc1ncc(C(=O)Nc2ccccc2)c(=O)n1C	> 59.6 µM (inactive)
COc1ccc(-c2nnc(Nc3nc4ccc(F)cc4s3)o2)c(OC)c1	> 59.6 µM (inactive)
Clc1ccccc1-c1nnc(Nc2nc3cc4c(cc3s2)OCO4)o1	53.1 µM (inactive)
